For test [1], the target named is T1, Ubiquitin-like modifier-activating enzyme ATG7 (Homo sapiens, UniProt O95352).
T1 sequence (O95352 whole entry): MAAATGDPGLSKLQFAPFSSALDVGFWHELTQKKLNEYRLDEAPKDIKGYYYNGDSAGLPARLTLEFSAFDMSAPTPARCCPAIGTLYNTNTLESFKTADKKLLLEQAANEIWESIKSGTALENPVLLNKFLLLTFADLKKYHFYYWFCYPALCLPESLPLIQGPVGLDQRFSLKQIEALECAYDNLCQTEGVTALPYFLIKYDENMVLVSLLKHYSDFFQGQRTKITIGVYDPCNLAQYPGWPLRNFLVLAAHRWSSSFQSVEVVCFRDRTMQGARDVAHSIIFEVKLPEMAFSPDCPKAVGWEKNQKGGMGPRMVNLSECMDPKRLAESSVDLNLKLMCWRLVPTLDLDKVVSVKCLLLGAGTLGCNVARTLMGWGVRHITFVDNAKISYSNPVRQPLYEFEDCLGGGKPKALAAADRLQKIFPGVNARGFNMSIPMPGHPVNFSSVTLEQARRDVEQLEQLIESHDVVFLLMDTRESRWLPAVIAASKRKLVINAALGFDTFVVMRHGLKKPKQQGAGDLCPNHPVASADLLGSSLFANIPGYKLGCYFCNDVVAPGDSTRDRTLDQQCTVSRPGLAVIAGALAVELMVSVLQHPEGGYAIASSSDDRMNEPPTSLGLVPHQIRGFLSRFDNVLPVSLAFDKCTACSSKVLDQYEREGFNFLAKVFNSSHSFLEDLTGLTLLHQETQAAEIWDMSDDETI
In words: Inhibition of recombinant His-tagged human ATG7 incubated for 105 mins in presence of GST-tagged ATG3 and Flag-tagged Gabarap and measured after 2 hrs by FRET assay relative to control.

The target in test [2] is T1, Ubiquitin-like modifier-activating enzyme ATG7. Nature of the test: Inhibition of ATG7 in human 293HEK cells assessed as inhibition of ATG7:ATG8 thioester formation after 4 hrs by Western blot analysis.

In BindingDB's records for doi:10.1016/j.bmc.2020.115681 (Takeda Pharmaceuticals International, 2020) one finds IC50 data, which are given here for 2 compounds.

Turning to `Cc1cccc(Sc2nn([C@@H]3O[C@H](COS(N)(=O)=O)[C@@H](O)[C@@H]3F)c3ncnc(N)c23)c1` [[(2R,3R,4S,5R)-5-{4-amino-3-[(3-methylphenyl)sulfanyl]-1H-pyrazolo[3,4-d]pyrimidin-1-yl}-4-fluoro-3-hydroxytetrahydrofuran-2-yl]methyl sulfamate], the IC50 in test [1] turned out to be 35 nM.
With `CSc1nn([C@H]2C[C@H](O)[C@H](COS(N)(=O)=O)O2)c2ncnc(N)c12` [{(2S,3S,5R)-5-[4-amino-3-(methylsulfanyl)-1H-pyrazolo[3,4-d]pyrimidin-1-yl]-3-hydroxytetrahydrofuran-2-yl}methyl sulfamate], the IC50 in test [2] was found to be 295 nM.

The IC50 is the concentration at which inhibition is half-maximal.
